# Source: article PMC7317717, “Electrophysiological Characterization of Transport Across Outer‐Membrane Channels from Gram‐Negative Bacteria in Presence of Lipopolysaccharides” (Angewandte Chemie (International Ed. in English), 2020)
# Counter-ions that a name gives are not always drawn.
# Key:
# Assay in all cases: single-channel electrophysiology, planar lipid bilayer, ion current blockage events
# Assay type in all cases: binding
# OmpF (OmpF-WT) [1] = target: T1, OmpF (OmpF-WT) (Escherichia coli, UniProt P02931); conditions: purified OmpF without LPS; 250 uM compound; 200 mM KCl, 20 mM MES, pH 6.0; negative voltage (-50 mV stated for the OMV values)
# T1 construct: purified wild-type OmpF, mature porin, homotrimer, reconstituted in planar lipid bilayer; OMV form overexpressed in E. coli BL21(DE3)omp8
# T1 sequence (P02931 23-362): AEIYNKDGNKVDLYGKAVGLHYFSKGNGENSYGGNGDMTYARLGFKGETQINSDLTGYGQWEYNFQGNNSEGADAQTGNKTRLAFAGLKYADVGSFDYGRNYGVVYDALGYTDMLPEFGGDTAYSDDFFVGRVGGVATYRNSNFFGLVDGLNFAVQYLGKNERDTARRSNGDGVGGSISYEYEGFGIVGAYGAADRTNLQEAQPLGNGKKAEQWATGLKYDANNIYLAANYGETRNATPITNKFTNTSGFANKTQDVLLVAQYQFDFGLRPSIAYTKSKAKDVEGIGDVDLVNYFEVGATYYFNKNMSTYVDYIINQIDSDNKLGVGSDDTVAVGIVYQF
# Excerpt: single-channel electrophysiology, planar lipid bilayer, ion current blockage events on OmpF (OmpF-WT) | Higher event rates are found using purified OmpF.
# OmpF (OmpF-WT) [2] = target: T1, OmpF (OmpF-WT); conditions: purified OmpF without LPS; 250 uM compound; 200 mM KCl, 20 mM MES, pH 6.0; negative voltage (-50 mV stated for the OMV values); remark: listed apart in the source
# OmpF (OmpF-WT) [3] = target: T1, OmpF (OmpF-WT); conditions: purified OmpF; 10 uM compound; 1 M KCl, 20 mM MES, pH 6
SMILES,k on (OmpF (OmpF-WT) [1]),k off (OmpF (OmpF-WT) [2]),event rate (OmpF (OmpF-WT) [3])
CCN1CCN(c2cc3c(cc2F)c(=O)c(C(=O)O)cn3C2CC2)CC1 [Enrofloxacin],"72,000 s^-1 M^-1",500 s⁻¹,–
NC[C@H]1O[C@H](O[C@H]2[C@H](O)[C@@H](O[C@H]3O[C@H](CO)[C@@H](O)[C@H](N)[C@H]3O)[C@H](N)C[C@@H]2N)[C@H](O)[C@@H](O)[C@@H]1O [Kanamycin sulfate],–,–,Kanamycin sulfate permeation for both batches of preparation
